Numbers after ± are expanded uncertainties.
Conditions: Liquid, Ebulliometric method (Recirculating still)

vapor or sublimation pressure (388.15 K): 153.7 ± 1 kPa
vapor or sublimation pressure (398.15 K): 200.6 ± 1 kPa
SMILES: O=CO [formic acid]

Reference: the NIST ThermoML archive (doi:10.1021/acs.jced.6b00139)
